# Assay results reported in patent US20180148418A1, “AMIDO-SUBSTITUTED CYCLOHEXANE DERIVATIVES” (Bayer Pharma Aktiengesellschaft, priority 2015, published 2018).
# pIC50: −log10 of the molar value.
# Key:
# [1] = tested on: wildtype Wnt signaling cascade; assay: HEK293 TOP assay (Super TopFlash luciferase reporter, Wnt-3a stimulated); format: cell-based; settings: Homo sapiens, HEK293, 16 h, HEK293 TOP reporter cells, Wnt3a at EC50, 16 hours
# How it was run: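 HEK293 cells stably carrying Super TopFlash (TOP) run in parallel with FOP cells, 10000/well plated 24 h ahead, stimulated with recombinant human Wnt-3a. Compounds tested 50 μM to 15 nM in 3.16-fold steps in CAFTY buffer pH 7.4 with 2 mM Ca^2+ and 0.01% BSA; luciferase read-out.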
# [2] = molecular target: T1, TNKS1 (Homo sapiens, UniProt O95271); assay: TNKS1 Assay B (auto-parsylation, [3H]-NAD+ SPA); format: biochemical; settings: 6 nM TNKS1, auto-parsylation, over night at room temperature
# T1 construct: purchased BPS Bioscience, San Diego, USA 80579 (TNKS1 Histone Ribosylation Assay Kit)
# T1 sequence (O95271 1-1327): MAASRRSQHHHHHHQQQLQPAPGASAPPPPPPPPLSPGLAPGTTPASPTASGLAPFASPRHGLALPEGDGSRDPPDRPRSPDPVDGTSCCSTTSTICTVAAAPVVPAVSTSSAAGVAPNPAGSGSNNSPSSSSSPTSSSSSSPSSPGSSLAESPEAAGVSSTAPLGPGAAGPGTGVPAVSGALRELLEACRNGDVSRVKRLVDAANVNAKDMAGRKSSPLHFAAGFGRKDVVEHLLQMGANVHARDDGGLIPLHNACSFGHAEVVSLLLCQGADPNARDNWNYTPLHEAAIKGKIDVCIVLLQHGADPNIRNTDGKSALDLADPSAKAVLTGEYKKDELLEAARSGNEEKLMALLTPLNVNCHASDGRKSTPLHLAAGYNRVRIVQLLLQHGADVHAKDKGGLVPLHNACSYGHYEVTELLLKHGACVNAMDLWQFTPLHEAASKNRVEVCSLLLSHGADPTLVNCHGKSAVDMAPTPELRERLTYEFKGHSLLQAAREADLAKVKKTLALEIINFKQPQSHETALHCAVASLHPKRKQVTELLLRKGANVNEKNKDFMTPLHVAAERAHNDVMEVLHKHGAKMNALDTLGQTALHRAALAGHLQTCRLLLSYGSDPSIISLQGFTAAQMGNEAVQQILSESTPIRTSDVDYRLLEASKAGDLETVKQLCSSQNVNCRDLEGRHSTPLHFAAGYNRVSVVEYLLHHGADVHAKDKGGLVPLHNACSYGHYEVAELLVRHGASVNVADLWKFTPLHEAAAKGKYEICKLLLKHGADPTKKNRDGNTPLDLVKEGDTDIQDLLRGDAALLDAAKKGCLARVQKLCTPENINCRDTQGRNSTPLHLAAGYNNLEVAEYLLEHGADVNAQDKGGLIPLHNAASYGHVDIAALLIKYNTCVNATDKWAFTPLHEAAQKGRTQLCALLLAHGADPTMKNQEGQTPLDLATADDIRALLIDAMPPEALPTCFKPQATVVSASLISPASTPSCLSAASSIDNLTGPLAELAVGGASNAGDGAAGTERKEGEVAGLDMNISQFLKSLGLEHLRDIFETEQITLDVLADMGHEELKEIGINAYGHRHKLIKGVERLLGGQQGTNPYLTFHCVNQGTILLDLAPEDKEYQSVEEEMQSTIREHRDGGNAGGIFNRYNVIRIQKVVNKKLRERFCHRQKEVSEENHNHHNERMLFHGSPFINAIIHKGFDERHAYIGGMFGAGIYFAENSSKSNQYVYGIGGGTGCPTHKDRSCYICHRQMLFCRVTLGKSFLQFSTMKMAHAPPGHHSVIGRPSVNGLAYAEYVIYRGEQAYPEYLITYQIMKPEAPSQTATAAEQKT
pIC50 [1],pIC50 [2],Structure (SMILES)
8.07,7.92,"COCCNC(=O)c1nc[nH]c1C(=O)N[C@H]1CC[C@@]2(CCN(c3ccccc3Cl)C2=O)CC1 [Example 259, N^5-[(trans)-2-(2-chlorophenyl)-1-oxo-2-azaspiro[4.5]dec-8-yl]-N^4-(2-methoxyethyl)-1H-imidazole-4,5-dicarboxamide]"
8.05,6.80,"Cc1cc(C)n2ncc(C(=O)N[C@H]3CC[C@@]4(CCN(c5cccc(Cl)c5)C4=O)CC3)c2n1 [Example 270, N-[(trans)-2-(3-chlorophenyl)-1-oxo-2-azaspiro[4.5]dec-8-yl]-5,7-dimethylpyrazolo[1,5-a]pyrimidine-3-carboxamide]"
6.89,6.18,"O=C(N[C@H]1CC[C@@]2(CCN(c3ccc(F)cc3Cl)C2=O)CC1)c1[nH]cnc1C(=O)N1CCN(CC(F)(F)F)CC1 [Example 167, N-[(trans)-2-(2-chloro-4-fluorophenyl)-1-oxo-2-azaspiro[4.5]dec-8-yl]-4-{[4-(2,2,2-trifluoroethyl)piperazin-1-yl]carbonyl}-1H-imidazole-5-carboxamide]"
6.39,6.01,"C[C@]1(C(=O)Nc2ccc(F)cc2Cl)CC[C@H](NC(=O)c2cnn3cccnc23)CC1 [Example 179, N-{trans-4-[(2-chloro-4-fluorophenyl)carbamoyl]-4-methylcyclohexyl}pyrazolo[1,5-a]pyrimidine-3-carboxamide]"
7.48,7.46,"Cc1cc(C)n2ncc(C(=O)N[C@H]3CC[C@H](C(=O)Nc4cnccc4Cl)CC3)c2n1 [Example 169, N-{trans-4-[(4-chloropyridin-3-yl)carbamoyl]cyclohexyl}-5,7-dimethylpyrazolo[1,5-a]pyrimidine-3-carboxamide]"
7.12,6.27,"O=C(N[C@H]1CC[C@@]2(CCN(c3cccc(Cl)c3)C2=O)CC1)c1cnn2cccnc12 [Example 268, N-[(trans)-2-(3-chlorophenyl)-1-oxo-2-azaspiro[4.5]dec-8-yl]pyrazolo[1,5-a]pyrimidine-3-carboxamide]"
8.68,7.74,"NC(=O)c1nc[nH]c1C(=O)N[C@H]1CC[C@@]2(CCN(c3ccc(F)cc3Cl)C2=O)CC1 [Example 186, N^5-[(trans)-2-(2-chloro-4-fluorophenyl)-1-oxo-2-azaspiro[4.5]dec-8-yl]-1H-imidazole-4,5-dicarboxamide]"
6.18,5.25,"Cc1cc(C)n2ncc(C(=O)N[C@H]3CC[C@]4(CCN(c5ccc(F)cc5)C4=O)CC3)c2n1 [Example 208, N-[(cis)-2-(4-fluorophenyl)-1-oxo-2-azaspiro[4.5]dec-8-yl]-5,7-dimethyl pyrazolo[1,5-a]pyrimidine-3-carboxamide]"
8.19,8.07,"O=C(N[C@H]1CC[C@@]2(CCN(c3ccc(F)cc3Cl)C2=O)CC1)c1cnn2ccc(N3CCCC3)nc12 [Example 232, N-[(trans)-2-(2-chloro-4-fluorophenyl)-1-oxo-2-azaspiro[4.5]dec-8-yl]-5-(pyrrolidin-1-yl)pyrazolo[1,5-a]pyrimidine-3-carboxamide]"
5.02,< 5.00,"CNC(=O)c1[nH]cnc1C(=O)N[C@H]1CC[C@@](C)(C(=O)Nc2ccc(F)cc2Cl)CC1 [Example 181, N^4-{cis-4-[(2-chloro-4-fluorophenyl)carbamoyl]-4-methylcyclohexyl}-N^5-methyl-1H-imidazole-4,5-dicarboxamide]"
9.26,8.14,"COCCNC(=O)c1nc[nH]c1C(=O)N[C@H]1CC[C@@]2(CCN(c3cc(F)c(F)cc3Cl)C2=O)CC1 [Example 202, N^5-[(trans)-2-(2-chloro-4,5-difluorophenyl)-1-oxo-2-azaspiro[4.5]dec-8-yl]-N^4-(2-methoxyethyl)-1H-imidazole-4,5-dicarboxamide]"
8.46,8.19,"Cc1cc(N2CC[C@]3(CC[C@@H](NC(=O)c4cnc5cccnn45)CC3)C2=O)c(Cl)cc1F [Example 265, N-[(trans)-2-(2-chloro-4-fluoro-5-methylphenyl)-1-oxo-2-azaspiro[4.5]dec-8-yl]imidazo[1,2-b]pyridazine-3-carboxamide]"
6.30,< 5.00,"O=C(N[C@H]1CC[C@H](C(=O)Nc2ccc(F)cc2Cl)CC1)c1cnc2ccccn12 [Example 206, N-{trans-4-[(2-chloro-4-fluorophenyl)carbamoyl]cyclohexyl}imidazo[1,2-a]pyridine-3-carboxamide]"
7.00,5.92,"O=C(N[C@H]1CC[C@@]2(CCN(c3ccc(F)cc3)C2=O)CC1)c1cnn2cccnc12 [Example 209, N-[(trans)-2-(4-fluorophenyl)-1-oxo-2-azaspiro[4.5]dec-8-yl]pyrazolo[1,5-a]pyrimidine-3-carboxamide]"
6.35,6.40,"CNC(=O)c1nc[nH]c1C(=O)N[C@H]1CC[C@H](C(=O)N(C)c2ccccc2)CC1 [Example 171, N^4-methyl-N^5-{trans-4-[methyl(phenyl)carbamoyl]cyclohexyl}-1H-imidazole-4,5-dicarboxamide]"
6.68,6.15,"CC1CN(C(=O)c2nc[nH]c2C(=O)N[C@H]2CC[C@@]3(CCN(c4ccc(F)cc4Cl)C3=O)CC2)CCS(=O)(=O)C1 (stereo partly drawn) [Example 183, N-[(trans)-2-(2-chloro-4-fluorophenyl)-1-oxo-2-azaspiro[4.5]dec-8-yl]-4-[(6-methyl-1,1-dioxido-1,4-thiazepan-4-yl)carbonyl]-1H-imidazole-5-carboxamide]"
8.64,7.92,"O=C(N[C@H]1CC[C@@]2(CCN(c3ccccc3Cl)C2=O)CC1)c1cnn2cccnc12 [Example 256, N-[(trans)-2-(2-chlorophenyl)-1-oxo-2-azaspiro[4.5]dec-8-yl]pyrazolo[1,5-a]pyrimidine-3-carboxamide]"
7.19,6.54,"O=C(NC1CC1)c1nc[nH]c1C(=O)N[C@H]1CC[C@@]2(CCN(c3cccc(Cl)c3)C2=O)CC1 [Example 279, N^5-[(trans)-2-(3-chlorophenyl)-1-oxo-2-azaspiro[4.5]dec-8-yl]-N^4-cyclopropyl-1H-imidazole-4,5-dicarboxamide]"
8.89,7.96,"O=C(N[C@H]1CC[C@@]2(CCN(c3ccc(F)cc3Cl)C2=O)CC1)c1nc[nH]c1C(=O)NCC(F)(F)F [Example 195, N^4-[(trans)-2-(2-chloro-4-fluorophenyl)-1-oxo-2-azaspiro[4.5]dec-8-yl]-N^5-(2,2,2-trifluoroethyl)-1H-imidazole-4,5-dicarboxamide]"
8.64,7.89,"CCNC(=O)c1nc[nH]c1C(=O)N[C@H]1CC[C@@]2(CCN(c3ccccc3Cl)C2=O)CC1 [Example 258, N^5-[(trans)-2-(2-chlorophenyl)-1-oxo-2-azaspiro[4.5]dec-8-yl]-N^4-ethyl-1H-imidazole-4,5-dicarboxamide]"
7.80,7.92,"O=C(N[C@H]1CC[C@@]2(CCN(c3ccc(F)cc3Cl)C2=O)CC1)c1cnn2cc(CCO)cnc12 [Example 214, N-[(trans)-2-(2-chloro-4-fluorophenyl)-1-oxo-2-azaspiro[4.5]dec-8-yl]-6-(2-hydroxyethyl)pyrazolo[1,5-a]pyrimidine-3-carboxamide]"
9.13,8.35,"CCNC(=O)c1nc[nH]c1C(=O)N[C@H]1CC[C@@]2(CCN(c3cc(F)c(F)cc3Cl)C2=O)CC1 [Example 197, N^5-[(trans)-2-(2-chloro-4,5-difluorophenyl)-1-oxo-2-azaspiro[4.5]dec-8-yl]-N^4-ethyl-1H-imidazole-4,5-dicarboxamide]"
